Data published in US20240228463A1, “SODIUM CHANNEL INHIBITORS AND METHODS OF DESIGNING SAME” (Genentech, Inc., priority 2021, published 2024).
Structures can show the parent of a compound that is named as a salt.

Target: T1, hNaV1.7 (Homo sapiens, UniProt Q15858)
T1 construct: expressed in transfected cells
Experiment: Patch voltage clamp electrophysiology (EP), Syncropatch 384PE, Nav1.7 in CHO cells;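 also: Nav1.7 stably expressed from cDNA in CHO cells, holding potential of −50 mV kept for the entire experiment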
Assay type: cell-based
Conditions: holding potential −50 mV, inhibition based on 7.5 min compound incubation, read-out: hNaV1.7 EP_SP

T1 sequence (Q15858 1-1977 isoform Q15858-3): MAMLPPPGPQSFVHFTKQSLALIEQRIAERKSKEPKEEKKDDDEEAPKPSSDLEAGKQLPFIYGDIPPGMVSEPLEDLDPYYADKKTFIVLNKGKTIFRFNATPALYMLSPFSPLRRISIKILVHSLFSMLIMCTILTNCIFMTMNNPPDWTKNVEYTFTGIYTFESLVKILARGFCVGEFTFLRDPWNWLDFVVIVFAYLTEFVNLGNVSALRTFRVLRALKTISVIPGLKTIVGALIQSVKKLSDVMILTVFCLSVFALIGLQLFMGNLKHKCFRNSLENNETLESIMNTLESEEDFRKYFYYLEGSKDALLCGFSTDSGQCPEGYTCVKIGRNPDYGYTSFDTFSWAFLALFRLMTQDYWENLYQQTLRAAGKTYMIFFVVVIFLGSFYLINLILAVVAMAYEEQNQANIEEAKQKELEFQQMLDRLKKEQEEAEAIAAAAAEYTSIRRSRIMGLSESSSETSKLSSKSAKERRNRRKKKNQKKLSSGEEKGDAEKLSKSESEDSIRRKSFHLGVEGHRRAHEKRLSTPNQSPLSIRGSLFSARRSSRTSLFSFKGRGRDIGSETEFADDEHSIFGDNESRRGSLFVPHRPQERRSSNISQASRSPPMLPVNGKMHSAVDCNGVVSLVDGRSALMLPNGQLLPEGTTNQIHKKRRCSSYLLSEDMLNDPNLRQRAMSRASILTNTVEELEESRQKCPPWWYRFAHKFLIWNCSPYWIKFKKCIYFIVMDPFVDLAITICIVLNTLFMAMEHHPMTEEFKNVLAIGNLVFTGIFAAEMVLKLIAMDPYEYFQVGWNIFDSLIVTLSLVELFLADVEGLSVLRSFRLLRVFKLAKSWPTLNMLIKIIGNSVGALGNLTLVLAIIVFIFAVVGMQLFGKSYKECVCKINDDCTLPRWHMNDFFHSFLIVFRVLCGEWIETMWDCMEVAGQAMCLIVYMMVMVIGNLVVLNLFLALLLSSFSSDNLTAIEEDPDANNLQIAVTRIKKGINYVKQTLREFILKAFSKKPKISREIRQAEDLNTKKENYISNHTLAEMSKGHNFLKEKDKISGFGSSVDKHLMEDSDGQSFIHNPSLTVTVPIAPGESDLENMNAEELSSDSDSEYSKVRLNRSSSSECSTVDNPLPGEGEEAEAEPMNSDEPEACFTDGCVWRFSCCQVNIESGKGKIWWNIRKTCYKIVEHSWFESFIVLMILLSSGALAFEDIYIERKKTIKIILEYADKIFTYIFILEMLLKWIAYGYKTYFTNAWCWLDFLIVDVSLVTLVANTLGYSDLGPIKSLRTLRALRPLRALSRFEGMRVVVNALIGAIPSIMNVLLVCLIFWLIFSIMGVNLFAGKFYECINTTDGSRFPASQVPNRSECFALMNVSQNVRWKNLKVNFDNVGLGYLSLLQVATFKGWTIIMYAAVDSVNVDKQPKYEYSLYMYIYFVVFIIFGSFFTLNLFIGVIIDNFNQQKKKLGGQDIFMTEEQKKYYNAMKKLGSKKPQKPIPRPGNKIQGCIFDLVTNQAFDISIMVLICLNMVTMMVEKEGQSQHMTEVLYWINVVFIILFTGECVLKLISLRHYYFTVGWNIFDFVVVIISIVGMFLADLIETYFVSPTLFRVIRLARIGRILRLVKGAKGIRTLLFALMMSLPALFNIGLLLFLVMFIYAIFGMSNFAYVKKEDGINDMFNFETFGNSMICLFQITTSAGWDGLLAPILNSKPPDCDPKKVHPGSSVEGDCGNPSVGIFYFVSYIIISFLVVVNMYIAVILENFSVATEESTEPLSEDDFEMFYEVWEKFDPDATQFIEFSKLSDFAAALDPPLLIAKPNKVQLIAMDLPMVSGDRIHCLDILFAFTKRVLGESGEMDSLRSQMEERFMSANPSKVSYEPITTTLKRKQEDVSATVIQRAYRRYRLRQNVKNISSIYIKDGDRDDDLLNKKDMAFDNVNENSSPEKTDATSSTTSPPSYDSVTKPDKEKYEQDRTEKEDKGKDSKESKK

Structure (SMILES)	IC50
CN(C)C1CCCN(c2cc(F)c(S(=O)(=O)NC(=O)c3cc(Cl)c(OCC4CCCC4)cc3F)c(F)c2)C1 (centres unmarked) [Example 62, 5-chloro-4-(cyclopentylmethoxy)-N-((4-(3-(dimethylamino)piperidin-1-yl)-2,6-difluorophenyl)sulfonyl)-2-fluorobenzamide formate]	17 nM
CN(C)[C@H]1CCCC[C@@H]1Nc1ccc(S(=O)(=O)NC(=O)c2cc(Cl)c(OCC3CCCC3)cc2F)cc1 [Example 64, 5-chloro-4-(cyclopentylmethoxy)-N-((4-(((1S,2S)-2-(dimethylamino)-cyclohexyl)amino)phenyl)sulfonyl)-2-fluorobenzamide formate]	290 nM
CN(C)[C@H]1CCCC[C@@H]1Oc1ccc(S(=O)(=O)NC(=O)c2cc(C3CC3)c(OCC3CCCC3)cc2F)c(F)c1 [Example 65, 4-(cyclopentylmethoxy)-5-cyclopropyl-N-((4-(((1S,2S)-2-(dimethylamino)cyclohexyl)oxy)-2-fluorophenyl)sulfonyl)-2-fluorobenzamide]	25 nM
CN(C)[C@H]1CCCC[C@@H]1Oc1ccc(S(=O)(=O)NC(=O)c2cc(Cl)c(OCC3CCCC3)cc2F)c(F)c1 [Example 66, 5-chloro-4-(cyclopentylmethoxy)-N-((4-(((1S,2S)-2-(dimethylamino)-cyclohexyl)oxy)-2-fluorophenyl)sulfonyl)-2-fluorobenzamide]	220 nM
O=C(NS(=O)(=O)c1ccc(OCc2ccccc2)cc1F)c1cc(C2CC2)c(OCC2CCCC2)cc1F [Example 70, N-((4-(benzyloxy)-2-fluorophenyl)sulfonyl)-4-(cyclopentylmethoxy)-5-cyclopropyl-2-fluorobenzamide]	60 nM
COc1ccc(F)cc1-c1nccc2cc(S(=O)(=O)NC(=O)c3cc(Cl)c(OCC4CCCC4)cc3F)ccc12 [Example 72, 5-chloro-4-(cyclopentylmethoxy)-2-fluoro-N-((1-(5-fluoro-2-methoxy-phenyl)isoquinolin-6-yl)sulfonyl)benzamide]	340 nM
COc1cc(F)c(C(=O)NS(=O)(=O)c2ccc(O[C@H]3CC[C@H](c4cccc(C(F)(F)F)c4)C[C@@H]3N(C)C)cc2F)cc1C1CC1 [Example 74, 5-cyclopropyl-N-((4-(((1S,2S,4S)-2-(dimethylamino)-4-(3-(trifluoro-methyl)phenyl)cyclohexyl)oxy)-2-fluorophenyl)sulfonyl)-2-fluoro-4-methoxybenzamide]	5.5 nM
CN(C)[C@H]1C[C@@H](c2cccc(C(F)(F)F)c2)CC[C@@H]1Oc1ccc(S(=O)(=O)NC(=O)c2cc(C3CC3)ccc2F)c(F)c1 [Example 75, 5-cyclopropyl-N-((4-(((1S,2S,4S)-2-(dimethylamino)-4-(3-(trifluoromethyl)-phenyl)cyclohexyl)oxy)-2-fluorophenyl)sulfonyl)-2-fluorobenzamide]	120 nM
CN(C)C1(C)CCCN(c2cc(F)c(S(=O)(=O)NC(=O)c3cc(Cl)c(OCC4CCCC4)cc3F)c(F)c2)C1 (centres unmarked) [Example 76, 5-chloro-4-(cyclopentylmethoxy)-N-((4-(3-(dimethylamino)-3-methylpiperidin-1-yl)-2,6-difluorophenyl)sulfonyl)-2-fluorobenzamide]	32 nM
O=C(NS(=O)(=O)c1ccccc1)c1cc(Cl)c(OCC2CCCC2)cc1F [Example 78, 5-chloro-4-(cyclopentylmethoxy)-2-fluoro-N-(phenylsulfonyl)benzamide]	100 nM
O=C(NS(=O)(=O)c1c(F)cccc1F)c1cc(Cl)c(OCC2CCCC2)cc1F [Example 79, 5-chloro-4-(cyclopentylmethoxy)-N-((2,6-difluorophenyl)sulfonyl)-2-fluorobenzamide]	100 nM
O=C(NS(=O)(=O)c1cc(Cl)ccc1F)c1cc(Cl)c(OCC2CCCC2)cc1F [Example 80, 5-chloro-N-((5-chloro-2-fluorophenyl)sulfonyl)-4-(cyclopentylmethoxy)-2-fluorobenzamide]	700 nM
COc1ccc(S(=O)(=O)NC(=O)c2cc(Cl)c(OCC3CCCC3)cc2F)cc1 [Example 81, 5-chloro-4-(cyclopentylmethoxy)-2-fluoro-N-((4-methoxyphenyl)sulfonyl)-benzamide]	140 nM
O=C(NS(=O)(=O)C1CCCCC1)c1cc(Cl)c(OCC2CCCC2)cc1F [Example 82, 5-chloro-N-(cyclohexylsulfonyl)-4-(cyclopentylmethoxy)-2-fluorobenzamide]	30 nM
O=C(NS(=O)(=O)c1ccc(OCc2ccccc2)cc1)c1cc(C2CC2)c(OCC2CCCC2)cc1F [Example 83, N-((4-(benzyloxy)phenyl)sulfonyl)-4-(cyclopentylmethoxy)-5-cyclopropyl-2-fluorobenzamide]	92 nM
O=C(NS(=O)(=O)c1ccc(NCc2ccccc2)cc1)c1cc(Cl)c(OCC2CCCC2)cc1F [Example 84, N-((4-(benzylamino)phenyl)sulfonyl)-5-chloro-4-(cyclopentylmethoxy)-2-fluorobenzamide]	690 nM

Structure (SMILES)	IC50
O=C(NS(=O)(=O)c1ccc(OCc2ccncc2)cc1)c1cc(Cl)c(OCC2CCCC2)cc1F [Example 85, 5-chloro-4-(cyclopentylmethoxy)-2-fluoro-N-((4-(pyridin-4-ylmethoxy)-phenyl)sulfonyl)benzamide]	16 nM
CO[C@H]1CC[C@H](S(=O)(=O)NC(=O)c2cc(Cl)c(OCC3CCCC3)cc2F)CC1 [Example 86, trans-5-chloro-4-(cyclopentylmethoxy)-2-fluoro-N-((4-methoxycyclohexyl)sulfonyl)benzamide]	100 nM
CO[C@H]1CC[C@@H](S(=O)(=O)NC(=O)c2cc(Cl)c(OCC3CCCC3)cc2F)CC1 [Example 87, cis-5-chloro-4-(cyclopentylmethoxy)-2-fluoro-N-((4-methoxycyclohexyl)sulfonyl)benzamide]	390 nM
CN(C)[C@H]1CCCC[C@@H]1Oc1ccc(S(=O)(=O)Nc2noc3cc(OCC4CCCC4)c(C4CC4)cc23)c(F)c1 [Example 89, N-(6-(cyclopentylmethoxy)-5-cyclopropylbenzo[d]isoxazol-3-yl)-4-(((1S,2S)-2-(dimethylamino)cyclohexyl)oxy)-2-fluorobenzenesulfonamide]	340 nM
CN(C)[C@H]1CCCC[C@@H]1Nc1ccc(S(=O)(=O)Nc2nc3ncc(Br)cc3s2)c(F)c1 [Example 95, N-(6-bromothiazolo[4,5-b]pyridin-2-yl)-4-(((1S,2S)-2-(dimethylamino)-cyclohexyl)amino)-2-fluorobenzenesulfonamide]	170 nM
CN(C)[C@H]1CCCC[C@@H]1Nc1ccc(S(=O)(=O)Nc2nc3ccc(OCC4CCCC4)cc3s2)c(F)c1 [Example 96, N-(6-(cyclopentylmethoxy)benzo[d]thiazol-2-yl)-4-(((1S,2S)-2-(dimethyl-amino)cyclohexyl)-amino)-2-fluorobenzenesulfonamide formate]	8.8 nM
CN(C)[C@H]1CCCC[C@@H]1Oc1ccc(S(=O)(=O)Nc2nc3ccc(OCC4CCCC4)cc3s2)c(F)c1 [Example 97, N-(6-(cyclopentylmethoxy)benzo[d]thiazol-2-yl)-4-(((1S,2S)-2-(dimethyl-amino)cyclohexyl)oxy)-2-fluorobenzenesulfonamide]	20 nM
CN(C)[C@H]1CCCC[C@@H]1Oc1ccc(S(=O)(=O)Nc2nc3cccc(Cl)c3s2)c(F)c1 [Example 99, N-(7-chlorobenzo[d]thiazol-2-yl)-4-(((1S,2S)-2-(dimethylamino)cyclohexyl)-oxy)-2-fluorobenzenesulfonamide]	430 nM
CN(C)[C@H]1CCCC[C@@H]1Nc1cc(F)c(S(=O)(=O)Nc2ccc(OCCC3(C(F)(F)F)CC3)cn2)cc1Cl [Example 101, 5-chloro-4-(((1S,2S)-2-(dimethylamino)cyclohexyl)amino)-2-fluoro-N-(5-(2-(1-(trifluoromethyl)cyclopropyl)ethoxy)pyridin-2-yl)benzenesulfonamide]	480 nM
CC(C)/C=C/c1cc2cnc(NS(=O)(=O)c3cc(Cl)c(N[C@H]4CCCC[C@@H]4N(C)C)cc3F)cc2n1C [Example 102, 5-chloro-4-(((1S,2S)-2-(dimethylamino)cyclohexyl)amino)-2-fluoro-N-(1-methyl-2-((E)-3-methylbut-1-en-1-yl)-1H-pyrrolo[3,2-c]pyridin-6-yl)benzenesulfonamide]	650 nM
CN(C)[C@H]1CCCC[C@@H]1Nc1cc(F)c(S(=O)(=O)Nc2ccc(OCCCc3ccc(C(F)(F)F)cc3)cn2)cc1Cl [Example 103, 5-chloro-4-(((1S,2S)-2-(dimethylamino)cyclohexyl)amino)-2-fluoro-N-(5-(3-(4-(trifluoromethyl)phenyl)propoxy)pyridin-2-yl) benzenesulfonamide]	220 nM
O=C(N[C@@H](C(=O)O)C1CCCCC1)c1cc(Cl)c(OCC2CCCC2)cc1F [Example 107, (R)-2-(5-chloro-4-(cyclopentylmethoxy)-2-fluorobenzamido)-2-cyclohexyl-acetic acid]	990 nM
COc1ccc2nc(NS(=O)(=O)c3ccc(N[C@H]4CCCC[C@@H]4N(C)C)cc3F)sc2c1 [Example 201, 4-(((1S,2S)-2-(dimethylamino)cyclohexyl)amino)-2-fluoro-N-(6-methoxybenzo[d]thiazol-2-yl)benzenesulfonamide]	370 nM
CN(C)[C@H]1CCCC[C@@H]1Nc1cc(F)c(S(=O)(=O)Nc2nc3ccc(OCC4CCCC4)cc3s2)cc1Cl [Example 202, 5-chloro-N-(6-(cyclopentylmethoxy)benzo[d]thiazol-2-yl)-4-(((1S,2S)-2-(dimethylamino)cyclohexyl)amino)-2-fluorobenzenesulfonamide]	22 nM
CN(C)[C@H]1CCCC[C@@H]1Nc1cc(F)c(S(=O)(=O)NC(=O)c2cc(C3CC3)c(OCC3CCCC3)cc2F)c(F)c1 [Example 204, 4-(cyclopentylmethoxy)-5-cyclopropyl-N-((4-(((1S,2S)-2-(dimethylamino)cyclohexyl)amino)-2,6-difluorophenyl)sulfonyl)-2-fluorobenzamide]	10 nM
CN(C)C1CCCN(c2ccc(S(=O)(=O)NC(=O)c3cc(Cl)c(OCC4CCCC4)cc3F)c(F)c2)C1 (centres unmarked) [Example 205, 5-chloro-4-(cyclopentylmethoxy)-N-((4-(3-(dimethylamino)piperidin-1-yl)-2-fluorophenyl)sulfonyl)-2-fluorobenzamide]	39 nM
